TGI and GI50 data for 18 compounds are collected here from PubChem BioAssay (NCI).

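In this assay, cells in 96-well plates receive the compound at five concentrations for 48 hours. Endpoints are linearly interpolated between the surrounding concentrations. Here, GI50 denotes the concentration required for 50% inhibition of growth. TGI is the concentration that stops growth completely.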 Where only a bound is given, the exact number is not on record here.

Test systems include MDA-N; DMS 114 small cell lung; LXFL 529 NSCLC; HOP-18 NSCLC; M19-MEL melanoma; KM20L2 colon; DMS 273 small cell lung; RXF-631 renal; XF 498 CNS.
Experiment in all cases: NCI anticancer screen, dose series, 48 h

On to `O=S1(=O)CCN(Cc2ccccn2)CC1`, for which, in the test on MDA-N, the TGI is more than 100 µM.
Consider `O=c1c2ccc3cccc4c(=O)cc(c5ccccc15)-c2c34`, for which the TGI with DMS 114 small cell lung was more than 100 µM; with LXFL 529 NSCLC it was more than 100 µM; in the test with HOP-18 NSCLC it was more than 100 µM; with M19-MEL melanoma it was 54 µM; with KM20L2 colon, more than 100 µM; with DMS 273 small cell lung, more than 100 µM.
Turning to `Nc1ccc(Nc2nc(F)nc(-c3c4ccccc4c4n3CCS4)n2)cc1`, the TGI in the test on DMS 114 small cell lung came to 37.7 µM; in the test with LXFL 529 NSCLC, 31.1 µM; in the test with HOP-18 NSCLC it was 33.9 µM; in the test on M19-MEL melanoma it was 40.5 µM; in the test with KM20L2 colon it was 33.5 µM; in the test with DMS 273 small cell lung, 24 µM. For the same compound, the TGI with RXF-631 renal is 32.3 µM; in the test on XF 498 CNS, 20.3 µM.
`CC(=O)N1CC2Nc3ccccc3C2CC1CO` (stereo not given): the TGI with DMS 114 small cell lung, with LXFL 529 NSCLC, with M19-MEL melanoma, with KM20L2 colon, with DMS 273 small cell lung and in the test on RXF-631 renal was more than 100 µM throughout. Besides, the TGI in the test on XF 498 CNS is more than 100 µM.
With `COc1ccc(C(c2ccc(C(C)C)cc(=O)c2O)c2c(O)cc3oc(-c4ccccc4)cc(=O)c3c2O)cc1` (stereo not given), the TGI is 71.6 µM in the test with LXFL 529 NSCLC; 80.4 µM with HOP-18 NSCLC; 26.7 µM with M19-MEL melanoma; more than 100 µM in the test with KM20L2 colon; 22 µM in the test on DMS 273 small cell lung; more than 100 µM in the test on RXF-631 renal. The TGI in the test on XF 498 CNS is 37 µM.
`COc1ccc(C(O)CNC(=O)c2ccccc2)cc1` (stereo not given): the TGI in the test with MDA-N was more than 100 µM.
For the compound `C(=C\c1csnn1)/c1cccnc1`, the TGI in the test on DMS 114 small cell lung, in the test with LXFL 529 NSCLC, in the test on HOP-18 NSCLC, in the test on M19-MEL melanoma, in the test on KM20L2 colon and in the test on RXF-631 renal was more than 100 µM in each case. The compound also registered a TGI in the test with XF 498 CNS of more than 100 µM.
On to `O=C(O)/C(=C/c1ccccc1[N+](=O)[O-])c1ccccc1`, for which the TGI in the test with DMS 114 small cell lung, in the test with LXFL 529 NSCLC, in the test with M19-MEL melanoma, with KM20L2 colon, in the test with DMS 273 small cell lung and in the test on RXF-631 renal was more than 100 µM each time. In the test with XF 498 CNS, the TGI is more than 100 µM.
Consider `CC(=O)OC12c3ccccc3C1CCCCCC21OCCCO1` (stereo not given), for which the TGI in the test with DMS 114 small cell lung, in the test with LXFL 529 NSCLC, with M19-MEL melanoma, in the test with KM20L2 colon and with DMS 273 small cell lung was more than 100 µM in each case.
`O=c1cc(Cl)nc[nH]1`: the TGI in the test with DMS 114 small cell lung, in the test with LXFL 529 NSCLC, in the test on HOP-18 NSCLC, with M19-MEL melanoma, with KM20L2 colon and with DMS 273 small cell lung was more than 100 µM throughout. For the same compound, the TGI in the test on RXF-631 renal is more than 100 µM.
On to `CCC[CH2][Sn]([CH2]CCC)([O]C(=O)c1cccc(F)c1)[O]C(=O)c1cccc(F)c1`, for which the GI50 is 0.376 µM in the test on DMS 114 small cell lung; 0.228 µM with LXFL 529 NSCLC; 0.575 µM in the test on M19-MEL melanoma; 1.47 µM in the test on KM20L2 colon; 1.39 µM with DMS 273 small cell lung; 0.209 µM in the test with RXF-631 renal. Also, in the test on XF 498 CNS, the GI50 was 0.559 µM. Moreover, the TGI in the test on DMS 114 small cell lung stood at 1.63 µM; in the test with LXFL 529 NSCLC it was 0.664 µM; in the test with M19-MEL melanoma it was 1.93 µM; in the test on KM20L2 colon it was 2.91 µM; with DMS 273 small cell lung, 3.4 µM; in the test on RXF-631 renal, 0.486 µM. In addition, the TGI in the test on XF 498 CNS was 2.04 µM.
For `O=[N+]([O-])c1ccccc1N=Nc1c(O)[nH]c2ccccc12`, the TGI in the test with MDA-N was more than 100 µM.
For `O=C(Nc1c(-c2nc3ccccc3[nH]2)sc(=S)n1-c1ccccc1)c1ccccc1`, the TGI in the test on DMS 114 small cell lung, in the test with LXFL 529 NSCLC, with HOP-18 NSCLC, in the test on M19-MEL melanoma, in the test on DMS 273 small cell lung and with RXF-631 renal was more than 100 µM throughout.
Regarding `O=c1ccccc2cccc(O)c12`, the TGI in the test with DMS 114 small cell lung, with LXFL 529 NSCLC, with HOP-18 NSCLC, with M19-MEL melanoma, with KM20L2 colon and in the test with DMS 273 small cell lung was more than 100 µM each time. The TGI with RXF-631 renal and with XF 498 CNS was more than 100 µM each time.
On to `Cc1cc(NS(=O)(=O)c2ccc(NC(=O)c3cccc4c(N)c5ccccc5nc34)cc2)no1`, for which the TGI was 45.6 µM with DMS 114 small cell lung; more than 100 µM with LXFL 529 NSCLC; 42.1 µM in the test with M19-MEL melanoma; more than 100 µM in the test with KM20L2 colon; 49 µM with DMS 273 small cell lung; 38.7 µM in the test with RXF-631 renal. In the test on XF 498 CNS, the TGI amounted to 55.5 µM.
For `COc1ccc2c3c1C(=O)CCC3CO2` (stereo not given), the TGI with DMS 114 small cell lung, in the test on LXFL 529 NSCLC, with M19-MEL melanoma, in the test on KM20L2 colon, in the test on DMS 273 small cell lung and with RXF-631 renal was more than 100 µM each time. For the same compound, the TGI in the test with XF 498 CNS was more than 100 µM.
In the case of `CCCNCc1nc2ccc(Br)cc2c(=O)n1CCC`, the TGI amounted to 22.9 µM with DMS 114 small cell lung; 25.1 µM in the test with LXFL 529 NSCLC; 32.1 µM with HOP-18 NSCLC; 26.1 µM with M19-MEL melanoma; 34.3 µM in the test with KM20L2 colon; 25.2 µM in the test on DMS 273 small cell lung. Moreover, the TGI is 19 µM in the test on RXF-631 renal and 30.9 µM with XF 498 CNS.
For the compound `CCOC(=O)/N=C(\N)SCc1ccccc1`, the TGI in the test with DMS 114 small cell lung, in the test with LXFL 529 NSCLC, in the test on HOP-18 NSCLC, in the test with M19-MEL melanoma, in the test on KM20L2 colon and in the test with DMS 273 small cell lung was more than 100 µM throughout. Moreover, the TGI with RXF-631 renal and in the test with XF 498 CNS was more than 100 µM throughout.
